From paper PMC5995442, “Drug discovery with an RBM20 dependent titin splice reporter identifies cardenolides as lead structures to improve cardiac filling” (PLoS ONE, 2018)
“Also recorded” adds a separate entry of the source. Where two headings read alike, the source gives them in different places. Residues, ends and D or L forms follow the SMILES beside them. *: point of attachment. Cbz = O=C(OCc1ccccc1)*

How the values were obtained:
[1] = test system: RBM20 dependent titin PEVK4-13 splicing reporter; test: Dual luciferase splicing reporter assay (DLR assay), RBM20 co-transfected; assay type: cell-based, human; conditions: for IC50: Homo sapiens
From the text: The objective of our study was to identify and evaluate small molecules with the potential to modulate alternative splicing via an unbiased chemical high-throughput screening approach. Using transient transfection of a dual luciferase splicing reporter assay (DLR-assay) in HEK293.EBNA cells and a RBM20 expression construct, we investigated >34.000 substances for their effect on alternative exon exclusion from our RBM20 dependent titin PEVK4-13 splicing reporter. For the primary screen (pilot screen), each compound was tested at 10 μM (single point) and compared to an untreated control. Positive hits leading to differential exon usage (exceeding three standard deviations) were picked for independent validation in 9 serial 2-fold dilutions starting at 20 μM. Compounds that produced a concentration dependent effect were validated manually in the 96-well format and cytotoxicity was evaluated. To minimize the detection of false positives, we excluded compounds with structural homology to each luciferase’s natural substrate. To determine the EC50 of candidates we calculated dose response curves using a non-linear least-squares fitting routine available within the GNUPLOT package (accessible online: http://ic50.tk/index.html). […] Compounds that produced a concentration depend effect in the DLR-assay and altered the alternative transcript levels were regarded as validated alternative splicing modulators.
(§1) Cells transfected were at a confluency of 50-60%.
5000 HEK293.EBNA cells were seeded in clear bottom, white 384-well plates (Corning by Sigma-Aldrich Chemie GmbH, Munich, Germany) using an automated cell dispenser (Biotek, Bad Friedrichshall, Germany). 24 h after cell seeding the expression plasmids were delivered using a Freedom EVO® robotic workstation (TECAN, Maennedorf, Switzerland) equipped with a MultiChannel Arm™. Cells were transiently transfected with 45 ng plasmid DNA ([…] and 40 ng RBM20 or 24 ng of the negative control pcDNA3.1 ad 45 ng with bacterial expression plasmid pBSSK). Compounds were added to the plates the following day using the same robotic platform. Luciferase activity was determined using Dual-Glo® Luciferase Assay System (Promega GmbH, Mannheim, Germany) on an Infinite® M1000 Pro (TECAN, Maennedorf, Switzerland) plate reader around 60 hours post-transfection. Assay robustness was evaluated by calculation z’ scores using an online tool provided by the Screening Unit at FMP Berlin (http://www.screeningunit-fmp.net/tools/z-prime.php).

[2] = target: human serum albumin (HSA) (Homo sapiens, UniProt P02768); test: Surface plasmon resonance, immobilized human serum albumin (positive control); assay type: binding; conditions: SPR, increasing concentrations
Sequence of human serum albumin (HSA) (P02768 25-609): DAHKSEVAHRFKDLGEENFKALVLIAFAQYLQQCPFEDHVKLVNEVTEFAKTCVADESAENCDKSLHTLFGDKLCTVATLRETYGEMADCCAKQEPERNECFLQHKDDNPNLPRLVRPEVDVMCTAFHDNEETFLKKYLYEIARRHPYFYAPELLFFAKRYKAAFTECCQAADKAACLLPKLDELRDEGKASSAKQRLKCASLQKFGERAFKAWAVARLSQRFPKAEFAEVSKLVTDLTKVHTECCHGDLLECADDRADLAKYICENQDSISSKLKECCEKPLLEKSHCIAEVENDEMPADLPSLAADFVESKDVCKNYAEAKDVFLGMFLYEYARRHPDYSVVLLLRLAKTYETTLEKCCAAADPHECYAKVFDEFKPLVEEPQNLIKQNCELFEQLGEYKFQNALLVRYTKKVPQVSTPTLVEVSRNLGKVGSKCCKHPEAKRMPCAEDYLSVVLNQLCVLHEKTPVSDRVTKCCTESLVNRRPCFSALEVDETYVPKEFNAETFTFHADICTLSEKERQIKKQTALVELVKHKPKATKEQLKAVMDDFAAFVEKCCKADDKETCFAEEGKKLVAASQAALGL

[3] = target: T1, RNA recognition motif (RRM) of RBM20 (Homo sapiens, UniProt Q5T481); test: Surface plasmon resonance, immobilized RBM20-RRM; assay type: binding; conditions: SPR, increasing concentrations
T1 construct: The RRM domain of RBM20 was cloned into pGEX-6P-1 bacterial expression plasmid; GST (N); made in house; host or cells: E. coli Rosetta 2 (DE3)
T1 sequence (Q5T481 518-593 limits assumed): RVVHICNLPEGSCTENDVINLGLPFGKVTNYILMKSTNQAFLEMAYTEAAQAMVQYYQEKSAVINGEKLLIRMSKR
Method: The RRM domain of RBM20 was cloned into pGEX-6P-1 bacterial expression plasmid and expressed in E. coli Rosetta™ 2 (DE3) (Novagen by Merck KgaA, Darmstadt, Germany). After purification of the recombinant protein using glutathione-sepharose (Sigma-Aldrich Chemie GmbH, Munich, Germany) the purified fraction was dialyzed o/n in reaction buffer (20 mM HEPES pH7, 200 mM NaCl, 1 mM MgCl2, 10% glycerol). The surface plasmon resonance study (SPR) was performed on a Biacore T100 (GE Healthcare Europe GmbH, Freiburg, Germany) using amine coupling. Chip surface was activated with 0.2 M EDC/0.4 M NHS. 30 μg of human serum albumin (HSA) (positive control) or RBM20-RRM were linked to the activated chip surface at pH 4.5 in 10 mM sodium acetate.

HEK293.EBNA cells = test: Cell viability, resazurin based staining (PrestoBlue); design: species or system human; conditions: for IC50: Homo sapiens, HEK293-EBNA, HEK293 cells, 60 h post-transfection, RBM20/titin reporter transfected, read-out: Viability IC50
From the text: as §1

[4] = target: Na+/K+ ATPase human erythrocytes; design: method as in PMID 11072868; conditions: cited from earlier work
[5] = test system: HEK293 cells gene expression; test: Expression profiling of digitoxin treated HEK293 cells (GSE36058); assay type: cell-based, human; conditions: digitoxin treated HEK293, GEO dataset GSE36058
Method: Expression profiling data (Gene Expression Omnibus—GSE36058) was analyzed using AltAnalyze [16]—gene expression cut-off = 1.0.

[6] = test system: titin minigene TTN Ex241-43 transcripts; test: RT-PCR / RT-qPCR of transcripts from titin minigene TTN Ex241-43 (I96-98); assay type: cell-based, human; conditions: HEK293 transfected with RBM20 and minigene I96-98
From the text: The objective of our study was to identify and evaluate small molecules with the potential to modulate alternative splicing via an unbiased chemical high-throughput screening approach. Using transient transfection of a dual luciferase splicing reporter assay (DLR-assay) in HEK293.EBNA cells and a RBM20 expression construct, we investigated >34.000 substances for their effect on alternative exon exclusion from our RBM20 dependent titin PEVK4-13 splicing reporter. For the primary screen (pilot screen), each compound was tested at 10 μM (single point) and compared to an untreated control. Positive hits leading to differential exon usage (exceeding three standard deviations) were picked for independent validation in 9 serial 2-fold dilutions starting at 20 μM. Compounds that produced a concentration dependent effect were validated manually in the 96-well format and cytotoxicity was evaluated. To minimize the detection of false positives, we excluded compounds with structural homology to each luciferase’s natural substrate. To determine the EC50 of candidates we calculated dose response curves using a non-linear least-squares fitting routine available within the GNUPLOT package (accessible online: http://ic50.tk/index.html). We evaluated the effect on splice activity on the RNA level by RT-qPCR of isoforms generated from a titin minigene containing TTN Ex241-43 (corresponding to TTN I-band exon I96-98) in the presence of the potential splice modulators. […]
Total RNA from HEK293.EBNA cells was extracted using RNeasy Micro Kit (Qiagen, Hilden, Germany) according to the manufacturer’s instructions. […] Quantitative RT-PCR was performed using SYBRGreen master mix (Applied Biosystems by Thermo Fisher Scientific Inc., USA) on a 7900 HT RT-cycler (Applied Biosystems by Thermo Fisher Scientific, Inc., USA). […] To quantification gene expression, we used the ΔΔCT method normalized to 18S or to the alternative transcripts generated from the splicing reporter. PSI values were calculated as ratio of unspliced and spliced reporter transcript. […]

RBM20 protein levels = test: RBM20 protein expression by immunoblot in co-transfected HEK293 cells; assay type: cell-based, human; conditions: proteasome inhibitor added to digoxin treated HEK293 cells
Method: For immunodetection, HEK293.EBNA samples were harvested by rinsing them of the cell culture substrate using PBS at 37°C and subsequently used for downstream processing or snap frozen in liquid nitrogen. For protein extraction samples were suspended in RIPA buffer (50 mM Tris pH 8.0, 150 mM NaCl, 1% NP-40, 0.25% sodium deoxycholate, 1.0 mM EDTA; 0.1% SDS) and lysed via sonication with 20 bursts at 70% energy using a VialTweeter (Hielscher Ultrasonics GmbH, Teltow, Germany). Protein concentration was estimated after 20’ precipitation of cell debris at 13,000xg for 20 min at 4°C using BCA assay (Life Technologies GmbH, Darmstadt, Germany [23225]). Samples were kept cool at any time. Lysates were separated by SDS-PAGE [14] and blotted on PVDF membranes. Blotted antigens were probed with mouse anti-c-myc 9E10 ([M5546], Sigma-Aldrich Chemie GmbH, Munich, Germany) tag antibody at 1:2000 and detected using a sheep anti-mouse IgG-HRP (GE Healthcare Europe GmbH, Freiburg, Germany [NA9310V]) conjugate 1:5000 follow by visualization with AceGlow™ (VWR PEQL37) on a FUSION FX7 CCD camera system (Vilber Lourmat Deutschland GmbH, Eberhardzell, Germany).

[7] = HEK293, Table 1, read-out: IC50 Splicing HEK293 cells
[8] = dose response fit, head prints [μM], fits IC50 only
[9] = FLuc/RLuc ratio, HEK293 cells, 96-well format, inset table of figure, read-out: Splicing IC50

With CC(=O)O[C@H]1CC[C@@]2(C)[C@H](CC[C@@H]3[C@@H]2CC[C@]2(C)[C@@H](C4=CC(=O)OC4)CC[C@]32O)C1 [Digitoxigenin-3-acetate, Digitoxigenin 3-acetate] the “effect on RBM20-mediated titin splicing (in words)” value (from here on “effect … (in words)”) ([1]; DLR assay, HEK293) was “independently validated”.

In the case of C[C@]12CC[C@H](O)C[C@H]1CC[C@@H]1[C@@H]2CC[C@]2(C)[C@@H](C3=CC(=O)OC3)CC[C@]12O [Digitoxigenin], the “binding to human serum albumin (HSA)” value [2] is reported as “strongly bind”, the IC50 ([1]; HEK293, read-out: Splicing IC50) is reported as 417 ± 99.5 nM and the “binding to RNA recognition motif (RRM) of RBM20” value [3] is reported as “not the RNA recognition motif (RRM) of RBM20”. The IC50 (HEK293.EBNA cells) was 468 ± 26.9 nM.

For C[C@H]1O[C@@H](O[C@H]2[C@@H](O)C[C@H](O[C@H]3[C@@H](O)C[C@H](O[C@H]4CC[C@@]5(C)[C@H](CC[C@@H]6[C@@H]5CC[C@]5(C)[C@@H](C7=CC(=O)OC7)CC[C@]65O)C4)O[C@@H]3C)O[C@@H]2C)C[C@H](O)[C@@H]1O [Digitoxin], the “binding to human serum albumin (HSA)” value [2] was “strongly bind”, the “effect … (in words)” value ([1]; DLR assay, HEK293) was “efficiently inhibit RBM20 mediated splicing” and the IC50 [1, 7] was 56 nM. For the same compound, the “Splicing Hill Coeff.” value [1, 8] was 2.3582 ± 1.3110, the “binding to RNA recognition motif (RRM) of RBM20” value [3] was “not the RNA recognition motif (RRM) of RBM20” and the IC50 [4] was 0.25 nM. For the same compound, the IC50 (HEK293.EBNA cells) was 66.3 ± 5.5 nM, the “Viability Hill Coeff.” value (HEK293.EBNA cells; [8]) was 2.0260 ± 0.2941 and the “Viability Max” value (HEK293.EBNA cells; fit maximum of relative viability, head prints [μM], fits IC50 only) was 1.0033 ± 0.0211. The “proteins associated with RBM20 dependent splicing down regulated (of 39)” value [5] was 10 and the “proteins associated with RBM20 dependent splicing upregulated (of 39)” value [5] was 8.

In the case of C[C@]12CC[C@H](O)C[C@H]1CC[C@@H]1[C@@H]2CC[C@]2(C)[C@@H](C3=CC(=O)OC3)[C@@H](O)C[C@]12O [Gitoxigenin], the “effect … (in words)” value ([1]; DLR assay, HEK293) is reported as “independently validated”.

With C[C@]12CCC(=O)C=C1CC[C@@H]1[C@@H]2[C@@H](O)C[C@@]2(C)[C@H]1CC[C@]2(O)C(=O)CO [Hydrocortisone] the “effect … (in words)” value ([1]; DLR assay, HEK293) was “did not interfere with splicing; also recorded: does not interfere with splicing activity; also recorded: do not interfere with RBM20 dependent splicing”.

For COc1ccc(-c2cc(=O)c3c(O)cc(O)c(-c4cc(-c5cc(=O)c6c(O)cc(O)cc6o5)ccc4OC)c3o2)cc1 [Isoginkgetin], the IC50 [1, 9] was 178000 nM, the “dose at which an effect on RBM20 dependent splicing and general mRNA maturation was found” value ([1]; only at the highest toxic dose) was 30 µM and the IC50 (HEK293.EBNA cells) was 10800 ± 13100 nM. The “intron retention / mRNA maturation (in words)” value [6] was “reduces alternative splicing and mRNA maturation; also recorded: affects mRNA maturation with increasing concentration”.

For CC(C)C[C@@H](C=O)NC(=O)[C@H](CC(C)C)NC(=O)[C@H](CC(C)C)NC(=O)OCc1ccccc1 [MG132] (Cbz-Leu-Leu-Leu-aldehyde), the “rescue of RBM20 protein expression under digoxin” value (RBM20 protein levels) was “did not rescue RBM20 protein expression”.

For CO[C@H]1C[C@H](O[C@H]2CC[C@@]3(C)[C@H](CC[C@@H]4[C@@H]3CC[C@]3(C)[C@@H](C5=CC(=O)OC5)[C@@H](OC(C)=O)C[C@]43O)C2)O[C@@H](C)[C@@H]1O [Oleandrin], the IC50 ([1]; DLR assay HEK293, read-out: splicing IC50) was 20 nM and the IC50 (HEK293.EBNA cells) was 30.5 ± 1.2 nM.

For C[C@@H]1O[C@@H](O[C@H]2C[C@@H](O)[C@]3(CO)[C@H]4[C@H](O)C[C@]5(C)[C@@H](C6=CC(=O)OC6)CC[C@]5(O)[C@@H]4CC[C@]3(O)C2)[C@H](O)[C@H](O)[C@H]1O [Ouabain], the “effect … (in words)” value ([1]; DLR assay, HEK293) is listed as “suppresses RBM20 mediated titin splicing”, the IC50 [1, 7] is listed as 1670 nM and the IC50 [4] is listed as 0.56 nM.

C[C@]12CC[C@H]3[C@@H](CC[C@]4(O)C[C@@H](O)CC[C@]34CO)[C@@]1(O)CC[C@@H]2C1=CC(=O)OC1 [Strophanthidol] showed an IC50 [1, 9] of 3840 ± 443 nM and an IC50 (HEK293.EBNA cells) of 3070 ± 634 nM.

With Cymarol the “effect … (in words)” value ([1]; DLR assay, HEK293) was “independently validated” and the “concentration at which effect on titin splicing starts” value ([1]; DLR assay, N = 4) was under 100 nM.
